From publication PMC3827244, “An Ultrasensitive High Throughput Screen for DNA Methyltransferase 1-Targeted Molecular Probes” (PLoS ONE, 2013)

Legend:
calf thymus DNA = experiment: DNA intercalation assay (ethidium bromide displacement); type: binding; conditions: 10 µM compound
Description: DNA intercalation was assessed by examining the ability of the compounds to displace ethidium bromide from calf thymus DNA (ctDNA; Sigma). Duplicate assays (100 µl) were conducted in black 96 well plates and contained 15 µg/ml ctDNA, 1.5 µM ethidium bromide and 10 µM compound in methylation assay buffer. DMSO was used as a negative control and daunorubicin (Sigma) was used as a positive control. Fluorescence was measured using excitation and emission wavelengths of 320 nm and 600 nm, respectively.

[1] = molecular target: T1, RFTS-containing DNMT1 (amino acids 351–1616) (Homo sapiens, UniProt P26358); experiment: Compound selectivity, endonuclease-coupled DNA methylation assay; type: biochemical; conditions: 20 µM inhibitor, 20 nM methyltransferase, 0.25 mM SAM
T1 construct: RFTS-containing DNMT1, amino acids 351–1616; made in house
T1 sequence (P26358 351-1616): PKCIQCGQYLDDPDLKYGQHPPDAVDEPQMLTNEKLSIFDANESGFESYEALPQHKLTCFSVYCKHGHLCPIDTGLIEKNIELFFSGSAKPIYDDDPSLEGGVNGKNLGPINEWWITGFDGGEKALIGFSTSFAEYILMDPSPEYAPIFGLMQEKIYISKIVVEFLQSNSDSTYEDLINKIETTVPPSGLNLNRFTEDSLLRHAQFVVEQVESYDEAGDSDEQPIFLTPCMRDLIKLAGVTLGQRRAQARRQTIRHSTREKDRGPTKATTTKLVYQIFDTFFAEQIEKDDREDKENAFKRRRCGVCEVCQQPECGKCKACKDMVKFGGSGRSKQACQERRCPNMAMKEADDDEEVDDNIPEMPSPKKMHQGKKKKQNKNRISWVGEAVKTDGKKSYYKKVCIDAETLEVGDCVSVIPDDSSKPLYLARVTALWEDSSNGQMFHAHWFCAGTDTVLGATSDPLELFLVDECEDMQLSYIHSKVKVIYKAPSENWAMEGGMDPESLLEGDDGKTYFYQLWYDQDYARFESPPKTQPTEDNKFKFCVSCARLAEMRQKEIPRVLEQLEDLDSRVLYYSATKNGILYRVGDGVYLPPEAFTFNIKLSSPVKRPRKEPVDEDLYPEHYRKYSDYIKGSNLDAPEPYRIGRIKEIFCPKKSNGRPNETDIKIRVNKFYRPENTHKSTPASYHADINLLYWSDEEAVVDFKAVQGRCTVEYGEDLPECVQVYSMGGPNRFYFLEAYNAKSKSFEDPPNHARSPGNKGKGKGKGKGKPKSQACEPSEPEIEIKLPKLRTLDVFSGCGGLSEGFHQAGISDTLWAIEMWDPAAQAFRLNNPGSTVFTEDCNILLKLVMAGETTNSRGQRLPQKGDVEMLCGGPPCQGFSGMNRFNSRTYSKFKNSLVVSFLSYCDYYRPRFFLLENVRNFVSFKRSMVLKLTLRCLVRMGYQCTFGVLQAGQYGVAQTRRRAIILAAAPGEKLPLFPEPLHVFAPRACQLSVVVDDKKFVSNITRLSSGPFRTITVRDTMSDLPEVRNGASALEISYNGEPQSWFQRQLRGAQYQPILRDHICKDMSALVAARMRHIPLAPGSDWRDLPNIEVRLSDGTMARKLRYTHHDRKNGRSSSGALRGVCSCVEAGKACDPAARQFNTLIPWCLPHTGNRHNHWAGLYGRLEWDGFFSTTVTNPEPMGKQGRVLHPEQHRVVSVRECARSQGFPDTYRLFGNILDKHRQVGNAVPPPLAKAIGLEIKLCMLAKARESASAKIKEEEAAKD
Description: (§1) Triplicate assays (100 µl) containing 0.25 mM SAM, 0.2 µM oligonucleotide 8006, 0.8 U GlaI, 20 nM methyltransferase, 20 µM inhibitor and 1% DMSO were conducted in 96 well plates. Following enzyme addition, assay plates were incubated at 37°C for 75 min and fluorescence was measured in a BioTek Neo plate reader. A control containing only GlaI was subtracted from each assay. […] Percent activity was determined by comparing product formation to a DMSO containing control assay.

CD-DNMT3A/DNMT3L complex = molecular target: T2, CD-DNMT3A/DNMT3L complex (Homo sapiens, UniProt Q9Y6K1); experiment: as above; type: biochemical; conditions: 20 µM inhibitor, 20 nM methyltransferase, 0.25 mM SAM
T2 construct: CD-DNMT3A; amino acids 611–912; His tag (N); made in house; host or cells: Rosetta 2(DE3)pLysS (E. coli) for CD-DNMT3A
T2 sequence (Q9Y6K1 611-912): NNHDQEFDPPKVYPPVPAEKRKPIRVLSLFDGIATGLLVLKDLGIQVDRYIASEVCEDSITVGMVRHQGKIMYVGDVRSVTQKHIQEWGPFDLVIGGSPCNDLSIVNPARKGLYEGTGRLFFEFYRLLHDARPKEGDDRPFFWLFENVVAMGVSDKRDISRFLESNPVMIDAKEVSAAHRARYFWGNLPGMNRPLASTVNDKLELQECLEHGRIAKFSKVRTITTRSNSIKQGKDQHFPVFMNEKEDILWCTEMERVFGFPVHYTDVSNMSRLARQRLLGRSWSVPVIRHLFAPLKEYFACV
T2 sequence (Q9UJW3 whole entry partner, the tested form may be a part): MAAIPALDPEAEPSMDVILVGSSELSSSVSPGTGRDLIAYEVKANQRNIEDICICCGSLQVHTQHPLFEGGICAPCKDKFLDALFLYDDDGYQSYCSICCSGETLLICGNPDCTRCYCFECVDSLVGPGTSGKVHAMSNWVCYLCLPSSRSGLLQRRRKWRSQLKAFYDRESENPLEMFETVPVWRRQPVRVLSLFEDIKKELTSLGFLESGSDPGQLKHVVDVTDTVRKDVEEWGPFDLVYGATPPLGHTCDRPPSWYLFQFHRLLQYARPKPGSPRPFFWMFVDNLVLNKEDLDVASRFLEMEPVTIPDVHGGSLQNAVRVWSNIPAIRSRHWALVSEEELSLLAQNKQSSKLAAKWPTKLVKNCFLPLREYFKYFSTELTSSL
Description: as §1

M.SssI DNMT = molecular target: T3, M.SssI DNMT (Spiroplasma monobiae, UniProt P15840); experiment: as above; type: biochemical, bacterial; conditions: 1.25 h; 20 µM inhibitor, 20 nM methyltransferase, 0.25 mM SAM; read-out: Percent activity, M.SssI DNMT
T3 construct: purchased New England Biolabs
T3 sequence (P15840 whole entry): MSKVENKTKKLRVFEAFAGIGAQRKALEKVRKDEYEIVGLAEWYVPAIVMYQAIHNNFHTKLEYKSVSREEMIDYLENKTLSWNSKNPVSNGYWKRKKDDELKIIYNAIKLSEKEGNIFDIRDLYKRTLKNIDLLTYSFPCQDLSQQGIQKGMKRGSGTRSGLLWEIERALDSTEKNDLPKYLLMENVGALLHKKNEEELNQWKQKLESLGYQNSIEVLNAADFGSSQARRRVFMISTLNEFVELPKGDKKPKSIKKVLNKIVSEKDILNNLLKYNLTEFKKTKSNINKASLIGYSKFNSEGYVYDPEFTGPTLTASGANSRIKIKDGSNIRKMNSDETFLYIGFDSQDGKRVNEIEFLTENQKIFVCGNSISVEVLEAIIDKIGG
Description: as §1, with “After identifying direct inhibitors of DNMT1 lacking the RFTS domain, inhibitor selectivity was assessed by examining inhibition of RFTS-containing DNMT1 (amino acids 351–1616), CD-DNMT3A/DNMT3L complex, and the bacterial cytosine methyltransferase from M. SssI (New England Biolabs) using the endonuclease-coupled DNA methylation assay. Triplicate” for “Triplicate”

Structure (SMILES)	DNA intercalation (in words) (calf thymus DNA)	RFU (ethidium bromide fluorescence) (calf thymus DNA; 15 µg/ml ctDNA, 1.5 µM ethidium bromide, DMSO 2370 ± 190)	Percent activity, RFTS-containing Dnmt1 [1]	Percent activity, DNMT3A/DNMT3L Complex (CD-DNMT3A/DNMT3L complex)	remaining activity at 20 µM (M.SssI DNMT)
COc1cccc2c1C(=O)c1c(O)c3c(c(O)c1C2=O)C[C@@](O)(C(C)=O)C[C@@H]3O[C@H]1C[C@H](N)[C@H](O)[C@H](C)O1 [Daunorubicin, daunorubicin, reference compound]	significantly reduced fluorescence	605 ± 33 RFU			
Nc1ncn([C@@H]2O[C@H](CO)[C@@H](O)[C@H]2O)c(=O)n1 [5-aza-cytidine, reference compound]			100±11%	97±10%	100 ± 5%
